The record followed here is EPA's CvTdb concentration-time database.

SMILES strings stand for the structures.

Series [1] relates to Rat. Briefly: concentration in plasma after dosing. Particulars: 4 h; dosed: Wyeth-14643; 5.0 mg/kg; oral; Male; Sprague-Dawley.
The test system of series [2] is Rat. Briefly: concentration in plasma after dosing. Particulars: dosed: Wyeth-14643, 1.0 mg/kg, oral, Male, Sprague-Dawley.
The test system of series [3] is Rat. Briefly: concentration in thymus after dosing. The following applies: 20 min; dosed: Bis 2-Chloroethoxy Methane; 20 mg/kg; iv; Male; F344.
The test system of series [4] is Rat. Briefly: concentration in plasma after dosing. Particulars: 20 min; dosed: Bis 2-Chloroethoxy Methane; 20 mg/kg; iv; Female; F344.
The test system of series [5] is Rat. Kind of series: concentration in heart after dosing. The following applies: 5 h; dosed: Bis 2-Chloroethoxy Methane; 20 mg/kg; iv; Male; F344.
The test system of series [6] is Rat. Kind of series: concentration in plasma after dosing. Particulars: 40 min; dosed: Bis 2-Chloroethoxy Methane; 20 mg/kg; iv; Female; F344.
Series [7] deals with Rat. Kind of series: concentration in plasma after dosing. Particulars: 1 h; dosed: Bis 2-Chloroethoxy Methane; 20 mg/kg; iv; Male; F344.
For series [8], the system named is Rat. Kind of series: concentration in heart after dosing. The following applies: 2 h; dosed: Bis 2-Chloroethoxy Methane; 20 mg/kg; iv; Male; F344.
Series [9] concerns Rat. Kind of series: concentration in plasma after dosing. Particulars: 2 h; dosed: Bis 2-Chloroethoxy Methane; 20 mg/kg; iv; Female; F344.
For series [10], the system named is Rat. Briefly: concentration in thymus after dosing. The following applies: 8 h; dosed: Bis 2-Chloroethoxy Methane; 20 mg/kg; iv; Female; Harlan Sprague-Dawley.
For series [11], the system named is Rat. Briefly: concentration in liver after dosing. The following applies: 10 min; dosed: Bis 2-Chloroethoxy Methane; 20 mg/kg; iv; Female; F344.
The subject of series [12] is Rat. Briefly: concentration in thymus after dosing. The following applies: 2 h; dosed: Bis 2-Chloroethoxy Methane; 20 mg/kg; iv; Female; F344.
Series [13] concerns Rat. Kind of series: concentration in liver after dosing. Particulars: 1 h; dosed: Bis 2-Chloroethoxy Methane; 20 mg/kg; iv; Female; F344.
For series [14], the system named is Rat. Kind of series: concentration in thymus after dosing. Particulars: 40 min; dosed: Bis 2-Chloroethoxy Methane; 20 mg/kg; iv; Male; F344.
Series [15] deals with Rat. Briefly: concentration in plasma after dosing. Particulars: 40 min; dosed: Bis 2-Chloroethoxy Methane; 20 mg/kg; iv; Male; F344.
For series [16], the system named is Rat. Briefly: concentration in kidney after dosing. Particulars: 6 h; dosed: Fluorotelomer alcohol 8+2; 80 mg/kg; oral; Female; Harlan Sprague Dawley.
Series [17] relates to Rat. Briefly: concentration in plasma after dosing. Particulars: dosed: Fluorotelomer alcohol 8+2, 40 mg/kg, iv, Male, F344.
The test system of series [18] is Rat. Kind of series: concentration in liver after dosing. Particulars: 12 h; dosed: Fluorotelomer alcohol 8+2; 80 mg/kg; oral; Female; Harlan Sprague Dawley.
Series [19] deals with Rat. Kind of series: concentration in brain after dosing. Particulars: 6 h; dosed: Fluorotelomer alcohol 8+2; 80 mg/kg; oral; Female; Harlan Sprague Dawley.
Series [20] has as its system Rat. Kind of series: concentration in plasma after dosing. Particulars: 15 h; dosed: Di-n-butyl phthalate; 100 mg/kg; oral; Male; Sprague-Dawley.
The test system of series [21] is Rat. Briefly: concentration in plasma after dosing. Particulars: 3 h; dosed: Di-n-butyl phthalate; 50 mg/kg; oral; Male; Sprague-Dawley.
For series [22], the system named is Rat. Kind of series: concentration in plasma after dosing. The following applies: 20 min; dosed: Di-n-butyl phthalate; 20 mg/kg; iv; Male; Sprague-Dawley.
The subject of series [23] is Rat. Briefly: concentration in plasma after dosing. The following applies: 5 min; dosed: Di-n-butyl phthalate; 100 mg/kg; oral; Male; Sprague-Dawley.
Series [24] deals with Rat. Briefly: concentration in kidney after dosing. Particulars: 864 h; dosed: Perfluorodecanoic acid; 10 mg/kg; oral; Male; Harlan Sprague Dawley.
The subject of series [25] is Rat. Kind of series: concentration in kidney after dosing. Particulars: 1848 h; dosed: Perfluorodecanoic acid; 10 mg/kg; oral; Female; Harlan Sprague Dawley.
For series [26], the system named is Rat. Briefly: concentration in plasma after dosing. The following applies: dosed: Perfluorodecanoic acid, 2 mg/kg, iv, Male, F344.
The test system of series [27] is Rat. Briefly: concentration in brain after dosing. The following applies: 864 h; dosed: Perfluorodecanoic acid; 10 mg/kg; oral; Female; Harlan Sprague Dawley.
Series [28] relates to Rat. Kind of series: concentration in plasma after dosing. Particulars: 0.25 h; dosed: Primidone; 80 mg/kg; oral; Female; Harlan Sprague-Dawley.
In series [29] the test system is Rat. Kind of series: concentration in plasma after dosing. The following applies: 18 h; dosed: Primidone; 30 mg/kg; oral; Male; F344.
Series [30] relates to Rat. Kind of series: concentration in thymus after dosing. The following applies: 5.333 h; dosed: Thiodiglycolic Acid; 20 mg/kg; iv; Female; Harlan Sprague Dawley.
In series [31] the test system is Rat. Kind of series: concentration in thymus after dosing. The following applies: 3 h; dosed: Thiodiglycolic Acid; 20 mg/kg; iv; Male; Harlan Sprague Dawley.
Series [32] deals with Rat. Kind of series: concentration in thymus after dosing. Particulars: 1 h; dosed: Thiodiglycolic Acid; 20 mg/kg; iv; Female; Harlan Sprague Dawley.
Series [33] has as its system Rat. Briefly: concentration in thymus after dosing. Particulars: 2 h; dosed: Thiodiglycolic Acid; 20 mg/kg; iv; Female; Harlan Sprague Dawley.
The test system of series [34] is Rat. Briefly: concentration in liver after dosing. The following applies: 6.667 h; dosed: Thiodiglycolic Acid; 20 mg/kg; iv; Female; Harlan Sprague Dawley.
Series [35] relates to Rat. Briefly: concentration in plasma after dosing. The following applies: 2 h; dosed: Thiodiglycolic Acid; 20 mg/kg; iv; Male; Harlan Sprague Dawley.
The subject of series [36] is Rat. Briefly: concentration in plasma after dosing. Particulars: 40 min; dosed: Thiodiglycolic Acid; 20 mg/kg; iv; Male; Harlan Sprague Dawley.
Series [37] concerns Rat. Kind of series: concentration in heart after dosing. The following applies: 10 h; dosed: Thiodiglycolic Acid; 20 mg/kg; iv; Male; F344.
Series [38] concerns Rat. Briefly: concentration in plasma after dosing. The following applies: dosed: dichloroacetic acid, 100 mg/kg, oral, Male, F344.

For the compound `Cc1cccc(Nc2cc(Cl)nc(SCC(=O)O)n2)c1C`, the concentration in plasma in [1] turned out to be 955 ng/mL; in [2] (0.25 h) it was 341 ng/mL; in series [2] (4 h), 214 ng/mL.

`ClCCOCOCCCl` [Bis 2-Chloroethoxy Methane]: the concentration in thymus in series [3] was found to be 25400 ng/g; in series [10], 13.1 ng/g; in series [12], 376 ng/g; in series [14] it was 4530 ng/g. The concentration in plasma in [4] worked out at 4820 ng/mL; in series [6], 1720 ng/mL; in series [7] it was 1940 ng/mL; in series [9], 150 ng/mL; in series [15] it was 1930 ng/mL. The concentration in heart in series [5] stood at 42.1 ng/g; in series [8], 450 ng/g. Besides, the concentration in liver in [11] was found to be 2550 ng/g; in series [13], 343 ng/g.

In turn, `OCCC(F)(F)C(F)(F)C(F)(F)C(F)(F)C(F)(F)C(F)(F)C(F)(F)C(F)(F)F` [Fluorotelomer alcohol 8+2] came in with a concentration in kidney in series [16] of 905 ng/g. In addition, the concentration in plasma in series [17] (0.25 h) stood at 14200 ng/mL; in [17] (6 h) it was 186 ng/mL. For the same compound, the concentration in liver in [18] was found to be 1160 ng/g. The compound further showed a concentration in brain in series [19] of 1090 ng/g.

On to `CCCCOC(=O)c1ccccc1C(=O)O` [Mono-n-butyl phthalate], for which the concentration in plasma in series [20] came out at 900 ng/mL; in series [21], 3050 ng/mL; in series [22], 21800 ng/mL; in [23], 1430 ng/mL.

For the compound `O=C(O)C(F)(F)C(F)(F)C(F)(F)C(F)(F)C(F)(F)C(F)(F)C(F)(F)C(F)(F)C(F)(F)F` [Perfluorodecanoic acid], the concentration in kidney is 6720 ng/g in [24] and 11800 ng/g in series [25]. The concentration in plasma in series [26] (6 h) is 5600 ng/mL; in [26] (864 h), 2690 ng/mL. This compound returned a concentration in brain in series [27] of 1010 ng/g.

For `CCC1(c2ccccc2)C(=O)NC(=O)NC1=O` [Phenobarbital], the values for the concentration in plasma in series [28] and in series [29] were 400 ng/mL and 1540 ng/mL, respectively.

`O=C(O)CSCC(=O)O` [Thiodiglycolic Acid]: the concentration in thymus in series [30] came to 1080 ng/g; in series [31] it was 1430 ng/g; in series [32], 2580 ng/g; in series [33] it was 2180 ng/g. The same compound displayed a concentration in liver in series [34] of 1600 ng/g. The concentration in plasma in series [35] was 790 ng/mL; in series [36] it was 3090 ng/mL. The compound further registered a concentration in heart in [37] of 483 ng/g.

Regarding `O=C(O)C(Cl)Cl` [dichloroacetic acid], the values for the concentration in plasma in [38] (20 min) and in [38] (8 h) were 15900 ng/mL and 25000 ng/mL, respectively.
